The record followed here is patent US20260274833A1 (NiKang Therapeutics, Inc., priority 2022, published 2026).

The assay deals with T1, CDK2 (Homo sapiens, UniProt P24941).
T1 construct: endogenous in cells; host or cells: OVCAR3 cells
As to the kind of experiment: Phospho-RB measurement in OVCAR3 cells (HTRF phospho-RB cellular kit). It counts as cell-based. To be noted: inhibition of RB phosphorylation at S807/811 (HTRF, TR-FRET ratio 665/620), 24 h compound treatment, 0.3 to 10,000 nM. In short, it runs like this:
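IC50 came from a four-parameter logistic fit of the DMSO-normalized TR-FRET ratio (665/620 nm). That ratio reflects RB phosphorylation at S807/811, read with an HTRF antibody pair 4 h after adding lysate at room temperature.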
As usually defined, the IC50 is the concentration needed to halve the response being measured. Take `CN(C)Cc1cccc2c1CCN2S(=O)(=O)Nc1cccc(-c2nc(C(C)(C)C)sc2-c2ccnc(NC3CCN(S(C)(=O)=O)CC3)n2)c1F` [Example 133, N-(3-(2-(tert-butyl)-5-(2-((1-(methylsulfonyl)-piperidin-4-yl)amino)-pyrimidin-4-yl)thiazol-4-yl)-2-fluoro-phenyl)-4-((dimethylamino)methyl)-indoline-1-sulfonamide]: the IC50 was found to be 331 nM. `CN1CC2CCC(C1)N2c1nc(-c2cccc(NS(=O)(=O)N3CCc4ccccc43)c2F)c(-c2ccnc(NC3CC4(C3)CS(=O)(=O)C4)n2)s1` [Example 17, N-(3-(5-(2-((2,2-dioxido-2-thiaspiro-[3.3]-heptan-6-yl)amino)pyrimidin-4-yl)-2-(3-methyl-3,8-diazabicyclo[3.2.1]-octan-8-yl)thiazol-4-yl)-2-fluorophenyl)-indoline-1-sulfonamide]: the IC50 is 15 nM.

Take `COc1cccc2c1CN(S(=O)(=O)Nc1cccc(-c3nc(C(C)(C)C)sc3-c3ccnc(NC4CC5(C4)CS(=O)(=O)C5)n3)c1F)C2` [Example 202, N-(3-(2-(tert-butyl)-S-(2-((2,2-dioxido-2-thiaspiro[3.3]heptan-6-yl)amino)-pyrimidin-4-yl)thiazol-4-yl)-2-fluoro-phenyl)-4-methoxyisoindoline-2-sulfonamide]: the IC50 worked out at 86.2 nM. On to `CC(C)(C)c1nc(-c2cccc(NS(=O)(=O)N3CCC4(CCCC4)C3)c2F)c(-c2ccnc(NC3CCN(S(C)(=O)=O)CC3)n2)s1` [Example 169, N-(3-(2-(tert-butyl)-5-(2-((1-(methylsulfonyl)-piperidin-4-yl)amino)-pyrimidin-4-yl)thiazol-4-yl)-2-fluoro-phenyl)-2-azaspiro [4.4]nonane-2-sulfonamide], for which the IC50 was found to be 2250 nM. Next, `CC(C)(C)c1nc(-c2cccc(NS(=O)(=O)N3CCc4ccc(C#N)cc43)c2F)c(-c2ccnc(NC3CC4(C3)CN(S(C)(=O)=O)C4)n2)s1` [Example 200, N-(3-(2-(tert-butyl)-5-(2-((2-(methylsulfonyl)-2-azaspiro [3.3]heptan-6-yl)amino)pyrimidin-4-yl)thiazol-4-yl)-2-fluorophenyl)-6-cyanoindoline-1-sulfonamide]: 247 nM; `CC(C)(c1nc(-c2cccc(NS(=O)(=O)N3CCc4ccc(Cl)cc43)c2F)c(-c2ccnc(N[C@H]3CC[C@H](S(C)(=O)=O)CC3)n2)s1)C(F)(F)F` [Example 289, 6-chloro-N-(2-fluoro-3-(5-(2-(((1r,4r)-4-(methylsulfonyl)cyclohexyl)amino)pyrimidin-4-yl)-2-(1,1,1-trifluoro-2-methyl-propan-2-yl)thiazol-4-yl)phenyl)-indoline-1-sulfonamide]: 110 nM; `CC(C)(C)c1nc(-c2cccc(NS(=O)(=O)N3Cc4ccccc4C34CC4)c2F)c(-c2ccnc(NC3CCN(S(C)(=O)=O)CC3)n2)s1` [Example 256, N-(3-(2-(tert-butyl)-5-(2-((1-(methylsulfonyl)-piperidin-4-yl)amino)-pyrimidin-4-yl)thiazol-4-yl)-2-fluoro-phenyl)spiro [cyclopropane-1,1′-isoindoline]-2′-sulfonamide]: 3080 nM. For the compound `O=S1(=O)CC2(CC(Nc3nccc(-c4sc(C56CC(C5)C6)nc4-c4cccc(NS(=O)(=O)N5CC6CCC5CC6)c4F)n3)C2)C1` [Example 267, (1s,4s)-N-(3-(2-(bicyclo[1.1.1]pentan-]-yl)-5-(2-((2,2-dioxido-2-thiaspiro-[3.3]heptan-6-yl)amino)pyrimidin-4-yl)thiazol-4-yl)-2-fluorophenyl)-2-azabicyclo[2.2.2] octane-2-sulfonamide], the IC50 came out at 9410 nM. Next, `CC(C)(C)c1nc(-c2cccc(NS(=O)(=O)N3CCc4ccccc4CC3)c2F)c(-c2ccnc(NC3CCN(S(C)(=O)=O)CC3)n2)s1` [Example 81, N-(3-(2-(tert-butyl)-5-(2-((1-(methylsulfonyl)-piperidin-4-yl)amino)-pyrimidin-4-yl)thiazol-4-yl)-2-fluoro-phenyl)-1,2,4,5-tetrahydro-3H-benzo[d]azepine-3-sulfonamide]: 3730 nM.

As to `CC(C)(C)c1nc(-c2cccc(NS(=O)(=O)N3CCOc4ccccc4C3)c2F)c(-c2ccnc(NC3CCN(S(C)(=O)=O)CC3)n2)s1` [Example 91, N-(3-(2-(tert-butyl)-5-(2-((1-(methylsulfonyl)-piperidin-4-yl)amino)-pyrimidin-4-yl)thiazol-4-yl)-2-fluorophenyl)-2,3-dihydrobenzo [f][1,4]-oxazepine-4 (5H)-sulfonamide], the IC50 worked out at 117 nM.

Consider `O=S1(=O)CC2(CC(Nc3nccc(-c4sc(N5C6CCC5CN(C5CC(F)(F)C5)C6)nc4-c4cccc(NS(=O)(=O)N5CCc6ccc(Cl)cc65)c4F)n3)C2)C1` [Example 51, 6-chloro-N-(3-(2-(3-(3,3-difluoro-cyclobutyl)-3,8-diazabicyclo [3.2.1]octan-8-yl)-5-(2-((2,2-dioxido-2-thiaspiro-[3.3]heptan-6-yl)amino)-pyrimidin-4-yl)thiazol-4-yl)-2-fluorophenyl)-indoline-1-sulfonamide], for which the IC50 was 336 nM.

Regarding `O=S1(=O)CC2(CC(Nc3nccc(-c4sc(N5C6CCC5CN(C5CC(F)(F)C5)C6)nc4-c4cccc(NS(=O)(=O)N5CCc6ccc(C(F)(F)F)cc65)c4F)n3)C2)C1` [Example 293, N-(3-(2-(3-(3,3-difluorocyclobutyl)-3,8-diazabicyclo[3.2.1]octan-8-yl)-5-(2-((2,2-dioxido-2-thiaspiro[3.3]heptan-6-yl)amino)pyrimidin-4-yl)thiazol-4-yl)-2-fluorophenyl)-6-(trifluoromethyl)-indoline-1-sulfonamide], the IC50 amounted to 372 nM. As for `CC(C)(C)c1nc(-c2cccc(NS(=O)(=O)N3Cc4ccccc4C3)c2F)c(-c2ccnc(Nc3ccc(N4CCNCC4)cc3)n2)s1` [Example 79, N-(3-(2-(tert-butyl)-5-(2-((4-(piperazin-1-yl)-phenyl)amino)pyrimidin-4-yl)thiazol-4-yl)-2-fluorophenyl)-isoindoline-2-sulfonamide], the figure is 220 nM. As for `O=S1(=O)CC2(CC(Nc3nccc(-c4sc(C56CC(C5)C6)nc4-c4cccc(NS(=O)(=O)N5CCc6ccc(OC(F)(F)F)cc65)c4F)n3)C2)C1` [Example 36, N-(3-(2-(bicyclo [1.1.1]pentan-1-yl)-5-(2-((2,2-dioxido-2-thiaspiro [3.3]heptan-6-yl)amino)-pyrimidin-4-yl)thiazol-4-yl)-2-fluorophenyl)-6-(trifluoromethoxy) indoline-1-sulfonamide], the figure is 195 nM. On to `CN(C)S(=O)(=O)Nc1cccc(-c2nc(C(C)(C)C)sc2-c2ccnc(NC3CC4(C3)CS(=O)(=O)C4)n2)c1F` [Example 184, N-(3-(2-(tert-butyl)-5-(2-((2,2-dioxido-2-thiaspiro[3.3]heptan-6-yl)amino)-pyrimidin-4-yl)thiazol-4-yl)-2-fluoro-phenyl)dimethyl-aminesulfonamide], for which the IC50 turned out to be 1540 nM.

In the case of `CS(=O)(=O)[C@H]1CC[C@H](Nc2nccc(-c3sc(C45CC(C(F)(F)F)(C4)C5)nc3-c3cccc(NS(=O)(=O)N4CCc5ccc(Cl)cc54)c3F)n2)CC1` [Example 54, 6-chloro-N-(2-fluoro-3-(5-(2-(((1r,4r)-4-(methylsulfonyl)cyclohexyl)amino)pyrimidin-4-yl)-2-(3-(trifluoromethyl)bicyclo-[1.1.1]-pentan-1-yl)thiazol-4-yl)phenyl)-indoline-1-sulfonamide], the IC50 is 382 nM. Next, `CC(C)(C)c1nc(-c2cccc(NS(=O)(=O)N3CCc4c(CO)cccc43)c2F)c(-c2ccnc(NC3CC4(C3)CS(=O)(=O)C4)n2)s1` [Example 216, N-(3-(2-(tert-butyl)-5-(2-((2,2-dioxido-2-thiaspiro[3.3]heptan-6-yl)amino)-pyrimidin-4-yl)thiazol-4-yl)-2-fluoro-phenyl)-4-(hydroxymethyl) indoline-1-sulfonamide]: 65.4 nM. Next, `O=S1(=O)CC2(CC(Nc3nccc(-c4sc(C56CC(C(F)F)(C5)C6)nc4-c4cccc(NS(=O)(=O)N5CCc6ccc(C(F)(F)F)cc65)c4F)n3)C2)C1` [Example 278, N-(3-(2-(3-(difluoromethyl)bicyclo-[1.1.1]-pentan-1-yl)-5-(2-((2,2-dioxido-2-thiaspiro[3.3]heptan-6-yl)amino)-pyrimidin-4-yl)thiazol-4-yl)-2-fluorophenyl)-6-(trifluoromethyl)-indoline-1-sulfonamide]: 103 nM.

For `CCN(CC)S(=O)(=O)Nc1cccc(-c2nc(C(C)(C)C)sc2-c2ccnc(NC3CC4(C3)CS(=O)(=O)C4)n2)c1F` [Example 191, N-(3-(2-(tert-butyl)-5-(2-((2,2-dioxido-2-thiaspiro[3.3]heptan-6-yl)amino)-pyrimidin-4-yl)thiazol-4-yl)-2-fluoro-phenyl)-diethylamine-sulfonamide], the IC50 worked out at 8620 nM.
